Read-outs that look alike come from different tables or passages of the source.
Tested on: murine fibroblasts (NIH3T3) over-expressing human IGF-1 receptor
Experiment: Inhibition of IGF-stimulated cell proliferation (BrdU incorporation), Test (c)
Type: cell-based
Protocol: The construction of murine fibroblasts (NIH3T3) over-expressing human IGF-1 receptor has been described by Lammers et al (EMBO J, 8, 1369-1375, 1989). These cells show a proliferative response to IGF-I which can be measured by BrdU incorporation into newly synthesised DNA. Compound potency was determined as causing inhibition of the IGF-stimulated proliferation in the following assay:
Compounds are initially dissolved in DMSO to 10 mM, followed by dilutions in DMEM+1% FCS+glutamine to give a range from […] in 1-0.00045% DMSO final concentration in assay well.
Exponentially growing NIH3T3/IGFR cells were harvested and seeded in complete growth medium into a flat-bottomed 96 well tissue culture grade plate (Costar 3525) at 1.2×10^4 cells per well in a volume of 100 μl.
Growth medium was carefully removed from each well using a multi-channel pipette. Wells were carefully rinsed three times with 200 μl with HBSS. […] of starvation medium was added to each well and the plate was re-incubated for 24 hours.
50 μl of a 4× concentrate of test compound was added to appropriate wells. Cells were incubated for 30 minutes with compound alone before the addition of IGF. […]
The incorporation of BrdU in the cells (after a 4 h incorporation period) was assessed using the BrdU Cell Proliferation Elisa according to the manufacturer's protocol.

Row | Structure (SMILES) | IC50 [µM] | IC50 (Mus musculus) [µM]
1 | Cc1cc(Nc2nc(N3C[C@H](O)C[C@H]3c3cc(-c4ccccn4)no3)ncc2Cl)n[nH]1 [Example 3, 5-Chloro-2-{(2S4R)-4-hydroxy-2-[3-(pyrid-2-yl)isoxazol-5-yl]pyrrolidin-1-yl}-4-(5-methyl-1H-pyrazol-3-ylamino)pyrimidine] | 0.8 | 
2 | Cc1cc(Nc2nc(N3C[C@@H](O)C[C@H]3c3cc(-c4ccccn4)no3)ncc2Cl)n[nH]1 [Example 4, 5-Chloro-2-[(2S,4S)-4-hydroxy-2-[3-(pyrid-2-yl)isoxazol-5-yl]pyrrolidin-1-yl]-4-(5-methyl-1H-pyrazol-3-ylamino)pyrimidine] |  | 0.93

Source: patent US20080161330A1, “Pyrimidines as Igf-I Inhibitors” (ASTRAZENECA AB, priority 2005, published 2008)
